This note sets out measurements from US20250186437A1, “CARBOLINE COMPOUNDS AND USE THEREOF” (PTC Therapeutics, Inc., priority 2021, published 2025).

pIC50: −log10 of the molar value.

The test system of this assay is MOLM-13 cells. Briefly: MOLM-13 Cell Proliferation Assay (indicator of DHODH inhibition). In kind it is cell-based. To be noted: Homo sapiens, 72 Hours of culture, CellTiter-Glo, no uridine. The method, boiled down: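 Low-passage MOLM-13 cells (10^4/well) in RPMI 1640 + 10% FBS exposed to compound (0.5% DMSO final) for 72 h at 37 °C, 5% CO2. Viability read by CellTiter-Glo luminescence; growth reflects de novo pyrimidine synthesis dependent on DHODH.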

`CN1CCN(c2ncc([C@H]3c4[nH]c5ccc(-n6nccn6)cc5c4CCN3c3ncnc(C(F)(F)F)n3)cn2)CC1` [Compound 506, (1S)-1-[2-(4-methylpiperazin-1-yl)pyrimidin-5-yl]-6-(2H-1,2,3-triazol-2-yl)-2-[4-(trifluoromethyl)-1,3,5-triazin-2-yl]-2,3,4,9-tetrahydro-1H-pyrido[3,4-b]indole] gave a negative logarithm of the IC50 (pIC50) of 8.24.
Under `Cc1ccc([C@@H]2c3[nH]c4ccc(Cl)cc4c3CCN2c2ncc(F)cn2)c(F)c1F` [Compound 179, (1R)-6-chloro-1-(2,3-difluoro-4-methylphenyl)-2-(5-fluoropyrimidin-2-yl)-2,3,4,9-tetrahydro-1H-pyrido[3,4-b]indole] stands 7.63; under `CN1CCN(c2ncc([C@H]3c4[nH]c5ccc(Cl)cc5c4CCN3c3ncnc(C(F)(F)F)n3)cn2)CC1` [Compound 488, (1S)-6-chloro-1-[2-(4-methylpiperazin-1-yl)pyrimidin-5-yl]-2-[4-(trifluoromethyl)-1,3,5-triazin-2-yl]-2,3,4,9-tetrahydro-1H-pyrido[3,4-b]indole], 8.28.
The molecule `Fc1cc(-n2ccnc2)ccc1C1c2[nH]c3ccc(Cl)cc3c2CCN1c1nccc(C(F)(F)F)n1` (centres unmarked) [Compound 275, 6-chloro-1-[2-fluoro-4-(1H-imidazol-1-yl)phenyl]-2-[4-(trifluoromethyl)pyrimidin-2-yl]-2,3,4,9-tetrahydro-1H-pyrido[3,4-b]indole] gave a pIC50 of 8.14.
`Cc1ccc(C2c3[nH]c4ccc(Cl)cc4c3CCN2c2nccc(C(F)(F)F)n2)c(F)c1F` (centres unmarked) [Compound 128, 6-chloro-1-(2,3-difluoro-4-methylphenyl)-2-[4-(trifluoromethyl)pyrimidin-2-yl]-2,3,4,9-tetrahydro-1H-pyrido[3,4-b]indole] had a pIC50 of 9.05.
Under `Cc1cc(C#N)nc(N2CCc3c([nH]c4cc(F)c(Cl)cc34)C2c2cccc(F)c2F)n1` (centres unmarked) [Compound 152, 2-[6-chloro-1-(2,3-difluorophenyl)-7-fluoro-1,3,4,9-tetrahydro-2H-pyrido[3,4-b]indol-2-yl]-6-methylpyrimidine-4-carbonitrile] stands 8.43; under `Cc1cc(C)nc(N2CCc3c([nH]c4ccc(Cl)c(F)c34)C2c2ccc(/C=C/CCO)cc2)n1` (centres unmarked) [Compound 242, (3E)-4-{4-[6-chloro-2-(4,6-dimethylpyrimidin-2-yl)-5-fluoro-2,3,4,9-tetrahydro-1H-pyrido[3,4-b]indol-1-yl]phenyl}but-3-en-1-ol], 8.49; under `Oc1c(F)cccc1C1c2[nH]c3ccc(Cl)cc3c2CCN1c1nccc(C(F)(F)F)n1` (centres unmarked) [Compound 252, 2-{6-chloro-2-[4-(trifluoromethyl)pyrimidin-2-yl]-2,3,4,9-tetrahydro-1H-pyrido[3,4-b]indol-1-yl}-6-fluorophenol], 8.70.
For the molecule `CN1CCN(c2ccc(C3c4[nH]c5ccc(-n6nccn6)cc5c4CCN3c3nccc(C(F)(F)F)n3)cn2)CC1` (centres unmarked) [Compound 513, 1-[6-(4-methylpiperazin-1-yl)pyridin-3-yl]-6-(2H-1,2,3-triazol-2-yl)-2-[4-(trifluoromethyl)pyrimidin-2-yl]-2,3,4,9-tetrahydro-1H-pyrido[3,4-b]indole], the pIC50 is 7.95.
In turn, `Fc1cncc(C2c3[nH]c4ccc(Cl)c(F)c4c3CCN2c2nccc(C(F)(F)F)n2)c1` (centres unmarked) [Compound 146, 6-chloro-5-fluoro-1-(5-fluoropyridin-3-yl)-2-[4-(trifluoromethyl)pyrimidin-2-yl]-2,3,4,9-tetrahydro-1H-pyrido[3,4-b]indole] gave a pIC50 of 7.94.
In the case of `Clc1ccc2[nH]c3c(c2c1)CCN(c1ncc(-c2ccccc2)cn1)[C@H]3c1cnc(N2CCOCC2)nc1` [Compound 472, (1S)-6-chloro-1-[2-(morpholin-4-yl)pyrimidin-5-yl]-2-(5-phenylpyrimidin-2-yl)-2,3,4,9-tetrahydro-1H-pyrido[3,4-b]indole], the pIC50 was 8.39.
In the case of `CC(C)c1ccc(C2c3[nH]c4cc(F)c(Cl)cc4c3CCN2c2nccc(Cl)n2)cc1` (centres unmarked) [Compound 53, 6-chloro-2-(4-chloropyrimidin-2-yl)-7-fluoro-1-[4-(propan-2-yl)phenyl]-2,3,4,9-tetrahydro-1H-pyrido[3,4-b]indole], the negative logarithm of the IC50 (pIC50) is 8.11.
Under `Cc1ccc([C@H]2c3[nH]c4ccc(Cl)cc4c3CCN2c2nc(CF)nc(C(F)(F)F)n2)c(F)c1F` [Compound 526, (1S)-6-chloro-1-(2,3-difluoro-4-methylphenyl)-2-[4-(fluoromethyl)-6-(trifluoromethyl)-1,3,5-triazin-2-yl]-2,3,4,9-tetrahydro-1H-pyrido[3,4-b]indole] stands 9.30; under `Cc1ccc(C2c3[nH]c4cc(F)c(Cl)cc4c3CCN2c2nccc(C#N)n2)cc1` (centres unmarked) [Compound 44, 2-[6-chloro-7-fluoro-1-(4-methylphenyl)-1,3,4,9-tetrahydro-2H-pyrido[3,4-b]indol-2-yl]pyrimidine-4-carbonitrile], 7.83.
Under `Cc1ccc([C@H]2c3[nH]c4ccc(Cl)cc4c3CCN2c2ncc(F)c(C#N)n2)cc1` [Compound 392, 2-[(1S)-6-chloro-1-(4-methylphenyl)-1,3,4,9-tetrahydro-2H-pyrido[3,4-b]indol-2-yl]-5-fluoropyrimidine-4-carbonitrile] stands 8.51; under `Cc1nc(N2CCc3c([nH]c4ccc(Cl)cc34)C2c2cnc(N3CCOCC3)nc2)nc(C)c1F` (centres unmarked) [Compound 368, 6-chloro-2-(5-fluoro-4,6-dimethylpyrimidin-2-yl)-1-[2-(morpholin-4-yl)pyrimidin-5-yl]-2,3,4,9-tetrahydro-1H-pyrido[3,4-b]indole], 8.10; under `Fc1cnc(N2CCc3c([nH]c4ccc(Cl)cc34)C2c2cnc(N3CCOCC3)nc2)nc1` (centres unmarked) [Compound 364, 6-chloro-2-(5-fluoropyrimidin-2-yl)-1-[2-(morpholin-4-yl)pyrimidin-5-yl]-2,3,4,9-tetrahydro-1H-pyrido[3,4-b]indole], 8.00.
Molecule `Cc1nc(C)nc(N2CCc3c([nH]c4ccc([N+](=O)[O-])cc34)C2c2cnc(N3CCOCC3)nc2)n1` (centres unmarked) [Compound 313, 2-(4,6-dimethyl-1,3,5-triazin-2-yl)-1-[2-(morpholin-4-yl)pyrimidin-5-yl]-6-nitro-2,3,4,9-tetrahydro-1H-pyrido[3,4-b]indole] had a negative logarithm of the IC50 (pIC50) of 7.74.
Consider `OCCNc1ncc([C@H]2c3[nH]c4ccc(Cl)cc4c3CCN2c2nc(C(F)(F)F)nc(C(F)(F)F)n2)cn1` [Compound 535, 2-[(5-{(1S)-2-[4,6-bis(trifluoromethyl)-1,3,5-triazin-2-yl]-6-chloro-2,3,4,9-tetrahydro-1H-pyrido[3,4-b]indol-1-yl}pyrimidin-2-yl)amino]ethan-1-ol], for which the pIC50 is 9.15.
In turn, `Cc1nc(N2CCc3c([nH]c4ccc(Cl)cc34)C2c2cnc(N3CCOCC3)nc2)nc(C(F)(F)F)n1` (centres unmarked) [Compound 440, 6-chloro-2-[4-methyl-6-(trifluoromethyl)-1,3,5-triazin-2-yl]-1-[2-(morpholin-4-yl)pyrimidin-5-yl]-2,3,4,9-tetrahydro-1H-pyrido[3,4-b]indole] showed a pIC50 of 8.68.
Then `CCCCOC(=O)c1ccnc(N2CCc3c([nH]c4ccc(Cl)cc34)C2c2ccc(C)c(F)c2F)n1` (centres unmarked) [Compound 281, butyl 2-[6-chloro-1-(2,3-difluoro-4-methylphenyl)-1,3,4,9-tetrahydro-2H-pyrido[3,4-b]indol-2-yl]pyrimidine-4-carboxylate], with 8.85.
Under `N#Cc1ccc(C2c3[nH]c4cc(F)c(Cl)cc4c3CCN2c2nccc(Br)n2)cc1` (centres unmarked) [Compound 69, 4-[2-(4-bromopyrimidin-2-yl)-6-chloro-7-fluoro-2,3,4,9-tetrahydro-1H-pyrido[3,4-b]indol-1-yl]benzonitrile] stands 7.97.
Under `Cc1ccc([C@H]2c3[nH]c4ccc(Cl)c(F)c4c3CCN2c2nc(C)c(F)c(C)n2)c(F)c1F` [Compound 189, (1S)-6-chloro-1-(2,3-difluoro-4-methylphenyl)-5-fluoro-2-(5-fluoro-4,6-dimethylpyrimidin-2-yl)-2,3,4,9-tetrahydro-1H-pyrido[3,4-b]indole] stands 9.40.
As for `Cc1cc(C(F)(F)F)nc(N2CCc3c([nH]c4cc(F)c(Cl)cc34)C2c2ccc(C)c(F)c2F)n1` (centres unmarked) [Compound 148, 6-chloro-1-(2,3-difluoro-4-methylphenyl)-7-fluoro-2-[4-methyl-6-(trifluoromethyl)pyrimidin-2-yl]-2,3,4,9-tetrahydro-1H-pyrido[3,4-b]indole], the negative-log IC50 (pIC50) was 9.05.
In the case of `CN(C)c1ccc(C2c3[nH]c4ccc(Cl)c(F)c4c3CCN2c2nccc(C(F)(F)F)n2)cn1` (centres unmarked) [Compound 177, 5-{6-chloro-5-fluoro-2-[4-(trifluoromethyl)pyrimidin-2-yl]-2,3,4,9-tetrahydro-1H-pyrido[3,4-b]indol-1-yl}-N,N-dimethylpyridin-2-amine], the negative logarithm of the IC50 (pIC50) was 8.41.
`Cc1nc(N2CCc3c([nH]c4ccc(Cl)cc34)C2c2cnc(N3CCOCC3)nc2)ncc1F` (centres unmarked) [Compound 366, 6-chloro-2-(5-fluoro-4-methylpyrimidin-2-yl)-1-[2-(morpholin-4-yl)pyrimidin-5-yl]-2,3,4,9-tetrahydro-1H-pyrido[3,4-b]indole] gave a pIC50 of 8.00.
Turning to `Cc1ccc(C2c3[nH]c4cc(F)c(Cl)cc4c3CCN2c2nccc(Cl)n2)cc1` (centres unmarked) [Compound 43, 6-chloro-2-(4-chloropyrimidin-2-yl)-7-fluoro-1-(4-methylphenyl)-2,3,4,9-tetrahydro-1H-pyrido[3,4-b]indole], the pIC50 is 8.22.
In turn, `Fc1ccc(C2c3[nH]c4ccc(Cl)c(F)c4c3CCN2c2nccc(C(F)(F)F)n2)c(F)n1` (centres unmarked) [Compound 186, 6-chloro-1-(2,6-difluoropyridin-3-yl)-5-fluoro-2-[4-(trifluoromethyl)pyrimidin-2-yl]-2,3,4,9-tetrahydro-1H-pyrido[3,4-b]indole] showed a pIC50 of 8.52.
In turn, `CC(C)c1ccc(C2c3[nH]c4cc(F)c(Cl)cc4c3CCN2c2ncc(Cl)cn2)cc1` (centres unmarked) [Compound 57, 6-chloro-2-(5-chloropyrimidin-2-yl)-7-fluoro-1-[4-(propan-2-yl)phenyl]-2,3,4,9-tetrahydro-1H-pyrido[3,4-b]indole] had a pIC50 of 7.70.
